Assays:
[1] = test system: APP-transfected Chinese Hamster Ovary (APP-CHO) cells; test: Cellular copper uptake of Cu-BTSC complexes (ICP-MS); format: cell-based
Experimental: APP-transfected Chinese Hamster Ovary (APP-CHO) cells were treated with a range of [Cu(BTSC] complexes with dialkyl backbones at 1-50 μM for 6 hr in serum-free culture medium. Cells were washed twice with phosphate buffered saline (PBS) and cells scraped into fresh PBS and pelleted at 10,000 rpm in a microfuge for 5 min. Supernatant was discarded and cell pellets frozen at −70° C. until metal levels were determined by inductively-coupled plasma mass spectrometry (ICP-MS) at the Department of Pathology, University of Melbourne.

[2] = test system: M17 human neuroblastoma cells; test: Ionophore assay (metal uptake, ICPMS); format: cell-based; conditions: 5 hours at 37° C., reported versus internal control Clioquinol
Experimental: M17 human neuroblastoma cells were plated out on 6 well plates and left overnight. Enough cells were added to give approximately 70% confluent the following day of the experiment.
The test cells were incubated in 1 ml of media and compound mix for 5 hours at 37° C. At the end of the incubation the media was removed with a vacuum aspirator and 1 ml of PBS added to dislodge the cells. Cells are then put into Eppendorf tubes and pelleted. The PBS is removed and the remaining cell pellets are frozen at −20° C.
Cell pellets of similar levels are placed in 1.5 ml microfuge tubes. To each tube was added 50 μl of concentrated Nitric Acid (Aristar, BDH) to each cell pellet and allowed each cell pellet was allowed to digest overnight. The samples were heated for 20 min at 90° C. to complete the digestion. The volume of each sample was reduced to ˜45 ? l after digestion. To each was added 1 ml of the 1% Nitric Acid diluent. Measurements were made using a Varian UltraMass ICPMS instrument under operating conditions suitable for routine multi-element analysis.
The instrument was calibrated using Blank, 10, 50 and 100 ppb of a certified multi-element ICPMS standard solution (ICP-MS-CAI2-1, Accustandard) for Fe, Cu and Zn in 1% nitric acid. Used an certified internal standard solution containing 100 ppb Yttrium (Y 89) as an internal control (ICP-MS-IS-MIX1-1, Accustandard).

[3] = test system: WT cells; test: Dopamine induced cell death, WT cells (MTT); format: cell-based
Experimental: A series of trials were conducted in which the effect of CuGTSM on inhibiting Dopamine induced cell death were conducted on WT cells and A30P cells. The protocol used was as follows.
The cell line was maintained in OPTI-MEM (Gibco) supplemented with 10% fetal calf serum (FCS), Non-essential amino acids, sodium pyruvate and Penn/Strep. Cells were incubated at 37° C. in a humidified atmosphere of 95% air and 5% CO2. Cell assays were plated out into 48 well culture plates at 4×10^4 cells per well. Cells were left to settle overnight then incubated with drugs for 24h prior to being subjected to MTT assays for cell viability.
The viability of cells was assessed using an MTT assay. […] The mixture of media and reagents e.g. Dopamine was aspirated off and media containing 5 mg/mI MTT is added and the plate incubated for 1 h at 37° C. The remaining media/MTT solution is aspirated off and the cells were then solubilized with DMSO. The 48 well plate is then read at 595 nm on a plate reader.
In essence a series of WT cells and A30P cells were treated with a control, Dopamine, CuGTSM, Cu ATSM, and combinations of Dopamine and CuGTSM, and dopamine and CuATSM at various concentrations to determine the ability of the compound to act as an anti-oxidant and […] cell death. The results are shown in table 15 (WT cells) and Table 16 (A30P cells)

[4] = test system: mice with 6-OHDA lesion of the SNpc; test: 6-OHDA lesion Parkinson's disease model, amphetamine-induced rotation; format: in vivo; conditions: oral gavage 10 or 30 mg/kg daily, 7 days pre-lesion and 14 days post lesion
[5] = test system: EAE mouse model; test: Experimental autoimmune encephalomyelitis (EAE) mouse model of MS; format: in vivo; conditions: daily oral treatment
Excerpt: (§1) I. Cu(ATSM) is protective in mouse models of MS. The two most widely used mouse models of MS are the experimental autoimmune encephalomyelitis (EAE) and cuprizone models. Some features of progressive MS are evident in each model. Administration of Cu(ATSM) to these mice (daily oral treatment) established that: (a) Cu(ATSM) improved body weight changes and neurological symptoms evident in the EAE mouse model; (b) Cu(ATSM) improved body weight changes evident in the cuprizone mouse model; and (c) treating with Cu(ATSM) improves myelination in the corpus callosum of the cuprizone mouse model.

[6] = test system: cuprizone mouse model; test: Cuprizone mouse model of MS; format: in vivo; conditions: daily oral treatment
Excerpt: as §1

[7] = cited from earlier work
[8] = test system: G93A-SOD1 mice; test: G93A SOD1 ALS mice: survival and onset of paralysis

For `CN=C([S-])N/N=C(C)/C(C)=N/NC([S-])=NC.[64Cu+2]` [Complex A2, copper(II)diacetylbis(N(4)-methylthiosemicarbazone)], the “fold increase in cellular copper levels compared to untreated control cells” value ([1]; 1-50 μM, 6 hr) was 177±9 fold, the “cellular Copper level” value ([1]; treated, control 4.5) was 796 ng/mg protein and the “Ionophore (% uptake of metal at 10 μm)” value [2] was 157.1%. For the same compound, the “% recovery” value ([3]; Dopamine 500 μm + complex 0.01 μM) was 64.28%, the “% recovery” value ([3]; Dopamine 500 μm + complex 0.1 μM) was 103.13% and the “amphetamine-induced rotation versus control group” value [4] was “performed better”. For the same compound, the “body weight changes in the EAE mouse model” value [5] was “improved”, the “neurological symptoms in the EAE mouse model” value [5] was “improved” and the “body weight changes in the cuprizone mouse model” value [6] was “improved”. The “myelination in the corpus callosum” value [6] was “improves”, the “reduction potential E1/2” value ([7]; Cu(II) to Cu(I)) was −0.59 V and the “Cu(II)/Cu(I) reduction potential, harder to reduce than [Cu(GTSM)]” value ([7]; difference to [Cu(GTSM)]) was ~160 mV. The “onset of paralysis in ALS mice” value ([8]; 30 mg/kg gavage once daily (5 days/week)) was “significantly delays” and the “Increased Life Span” value ([8]; G93A-SOD1 mice, present results) was 31 to 33 days.

Reference: patent US11123350B2, “Metal delivery agents and therapeutic uses of the same” (THE UNIVERSITY OF MELBOURNE, priority 2006, dated 2021)
